Results published in US10556926B2, “Synthetic artificial peptides with antimicrobial effect” (priority 2014, dated 2020).
Like-named read-outs stand apart in the source and are kept apart here. No end group written: not given here.

Experiments:
E. coli DH5α = system: E. coli DH5α
Experimental: (§1) The minimum inhibitory concentration (MIC) of the peptides was carried out by way of example against gram(−) E. coli DH5α (and gram(+) Staphylococcus xylosus (both Deutsche Sammlung von Mikroorganismen and Zellkulturen, DSMZ) in a standardized microdilution method according to the general guidelines of the CLSI (Clinical and Laboratory Standards Institute 2006) and EUCAST (European Committee for Antimicrobial Susceptibility Testing of the European Society of Clinical Microbiology and Infectious Diseases 2003) with slight adaptations to the investigation of cationic antimicrobial peptides (Wiegand et al. 2008). The bacteria cells were cultivated in Mueller-Hinton-Boullion (MHB) to an optical density of 0.4 to 0.6 at 600 nm wavelength, corresponding to about 4·10^8 bacteria per ml. Then, the bacteria cultures were diluted to a bacteria concentration of about 1·10^5 bacteria per ml in sterile MHB. Using the peptides, series of 2-fold dilutions starting at 128 μM to the smallest dilution of 0.5 μM in MHB were prepared. The peptide dilutions were mixed with the dilute bacteria cultures in a […] in the chambers of a 96-well polypropylene microtiter plate (Starlab, Hamburg, Germany), so that the peptides were present in an end concentration between 64 μM and 0.25 μM at a bacteria concentration of 5·10^4 bacteria/ml. Sterile MHB served as negative control, and the positive control used as the corresponding bacteria concentration in MHB without the addition of peptide. The microtiter plates were incubated for 18 hours at 37° C. with shaking at 120 rpm in a climatically controlled chamber. After the incubation, the bacteria concentration was determined by renewed absorption measurement at a wavelength of 600 nm.

Staphylococcus xylosus = system: Staphylococcus xylosus
Experimental: as §1

[1] = system: human histiocytic lymphoma cell line U937; experiment: Cytotoxicity, direct membrane damage (CytoTox 96), LD50; assay type: cell-based; conditions: U937, two hours at 37° C., 0.25-64 μM
Experimental: The direct membrane damage was investigated with the help of the CytoTox 96 Non-Radioactive Cytotoxicity Assay (Promega, Mannheim, Germany). For this purpose, the cells were sedimented at 100 g for ten minutes at 4° C., and 50 μl of the resulting culture supernatant were added to 50 μl of the CytoTox substrate mix. After an incubation time of 30 minutes in the dark at room temperature, 50 μl of the CytoTox stopping solution were added to the sample and the absorption was measured at 490 nm. To determine the LD50 value, the measurement value of the negative control was deducted from the absorption values and divided by the measurement value of the permeabilization control. The calculated values were plotted graphically against the peptide concentration and fitted using the Origin pro 8.1 G Software according to a sigmoidal model and the LD50 values were ascertained from this. The calculation was carried out analogously to example 5 by reference to the solution of equation 5.1 for the case y=50, where y in this case corresponds to the relative cytotoxicity in percent and x corresponds to the peptide concentration in μM. Representative graphical evaluations of LD50 values are shown in FIG. 6 by reference to the measurement results for the reference peptides BMAP-27, protamine and KL-helix, and also the peptide O1 according to the invention.

[2] = system: human histiocytic lymphoma cell line U937; experiment: Long-term growth inhibition, minimum toxic concentration (MTC)
Experimental: The cytotoxic potential of the antimicrobial peptides was determined by way of example by reference to the human histiocytic lymphoma cell line U937 (DSMZ). The influence of the peptides on the permeability of the cell membrane and their longer-term growth-inhibiting effect was investigated. 15 ml of RPMI 1640 medium with 2 mM glutamine and 10% FCS (Biochrom, Berlin, Germany) were inoculated with 1·10^5 cells per ml and cultivated for three days at 37° in T75 cell culture bottles (TPP, Trasadingen, Switzerland) with constant gassing with 5% CO2 in a climatically controlled chamber. The medium was admixed with 10 U/ml penicillin and […] streptomycin (both AppliChem, Darmstadt, Germany) to avoid bacterial contaminations, with no further antibiotics being added during the subsequent recultivation. Before each experiment, the cells were washed by centrifugation at 100 g for five minutes and subsequent resuspension in RPMI 1640 medium with 2 mM glutamine and 10% FCS in each case two times and adjusted to a concentration of 1·10^5 cells per ml. Finally, in each case 100 μl of the U937 cells were transferred to the reaction chambers of a sterile 96-well polypropylene microtiter plate and admixed with in each case 100 μl of a prediluted antimicrobial peptide in RPMI 1640 medium without antibiotic addition, such that end concentrations of in each case 5·10^4 cells per ml at peptide concentrations between 0.25 μM and 64 μM were present. The negative control used was samples without antimicrobial peptide, while Triton X-100 (AppliChem) was used in an end concentration of 5% as positive control for the permeabilization. The samples were cultivated for two hours at 37° C. and with continuous gassing with 5% CO2 in a climatically controlled chamber. Then, in each case 100 μl of each sample were removed and transferred to new sterile microtiter plates for determining the direct membrane damage. The remaining 100 μl of the samples were cultivated for at least four further days.
For this purpose, 10 μl of lysing solution were added to in each case 100 μl of cell suspension and incubated for 60 minutes at 37° C. Then, the cell culture supernatants were investigated as described above. The lowest peptide concentration at which complete suppression of the cell growth was established after four days was stipulated as the minimum toxic concentration (MTC).

[3] = MHB, 18 hours at 37° C., mean of four test series

Substance	MIC E. coli (E. coli DH5α; DH5α, 18 h) [µM]	MIC S. xylosus (Staphylococcus xylosus; 18 h) [µM]	Toxicity LD50 [1] [µM]	Toxicity MTC (minimum toxic concentration) [2] [µM]	MIC E. coli (E. coli DH5α; [3]) [µM]	MIC S. xylosus (Staphylococcus xylosus; [3]) [µM]
GSGILILIKRK [M5]	>64	>64	>64	>64	–	–
ILIKRK [N7, ILIKRK]	>64	>64	>64	>64	–	–
ILILIKRK [N5]	64	64	>64	>64	–	–
ILILILILKRK [M3]	>64	>64	>64	>64	–	–
KKKFFFFFKKK [S8]	16	4	>64	–	–	–
KKKIIIIIIKKK-NH2 [O1′]	–	–	–	–	4	0.25
KKKIIIIIKKK [S2]	8	0.5	>64	–	–	–
KKKKKIIIIIDDDDD [D1]	>64	>64	>64	>64	–	–
KKKKKIIIIIDDDDK [D8]	>64	>64	>64	>64	–	–
KKKKKIIIIIDDDKK [D7]	>64	>64	>64	>64	–	–
KKKKKIIIIIDKKKK [D6]	32	16	>64	>64	–	–
KKKKKIIIIIKDDDD [D2]	>64	>64	>64	>64	–	–
KKKKKIIIIIKKKDD [D3]	>64	32	>64	>64	–	–
KKKKKIIIIIKKKKD [D4]	32	16	>64	>64	–	–
KKKKKIIIIIKKKKK [D5]	16	2	>64	>64	–	–
KKKLLLLLKKK [S4]	16	8	>64	–	–	–
KKKVVVVVKKK [S6]	64	8	>64	–	–	–
KLILKRKRKRILIK [A4]	32	16	>64	>64	–	–
KRKGKRK [H7, KRKGKRK]	>64	64	>64	>64	–	–
KRKGSGKRK [H8]	>64	>64	>64	>64	–	–
KRKIKRK [H5, KRKIKRK]	>64	>64	>64	>64	–	–

Substance	MIC E. coli (E. coli DH5α; DH5α, 18 h) [µM]	MIC S. xylosus (Staphylococcus xylosus; 18 h) [µM]	Toxicity LD50 [1] [µM]	Toxicity MTC (minimum toxic concentration) [2] [µM]	MIC E. coli (E. coli DH5α; [3]) [µM]	MIC S. xylosus (Staphylococcus xylosus; [3]) [µM]
KRKIL [C8, KRKIL]	>64	>64	>64	>64	–	–
KRKILI [C7, KRKILI]	>64	>64	>64	>64	–	–
KRKILIKRK [H3]	>64	64	>64	>64	–	–
KRKILIL [C6, KRKILIL]	>64	>64	>64	>64	–	–
KRKILILI [C5]	>64	>64	>64	>64	–	–
KRKILILIGSG [M4]	>64	>64	>64	>64	–	–
KRKILILIK [C4]	32	8	>64	>64	–	–
KRKILILIKR [C3]	16	8	>64	>64	–	–
KRKILILIKRK [M1]	8	2	>64	>64	–	–
KRKILILIKRKR [C2]	16	2	>64	>64	–	–
KRKILILIKRKRK [C1]	16	1	61	>64	–	–
KRKILILILIKRK [H1]	8	1	>64	>64	–	–
KRKILILILIL [M2]	>64	>64	>64	>64	–	–
KRKKRK [H6, KRKKRK]	>64	16	>64	>64	–	–
KRKLIKRK [H4]	>64	>64	>64	>64	–	–
KRKLILIKRK [H2]	>64	16	>64	>64	–	–
LKLLKKLLKKLLKLL [KL-helix]	4	2	–	8.0	–	–
RRRFFFFFRRR [S7]	4	0.5	>64	–	–	–
RRRIIIIIRRR [S1]	8	2	>64	–	–	–
RRRLLLLLRRR [S3]	8	1	>64	–	–	–
